Experimental data reported in patent publication US20160039825A1 (BIOGEN MA INC., priority 2013, published 2016).

Each compound was assayed against T1, Human ATX protein (Homo sapiens, UniProt Q13822) (assay: Autotaxin (ATX) assay, FRET with FS-3 substrate). Conditions: upper bound bins (no greater than 100, 250 or 500 nM); FS-3 2 μM, ATX 1.0 μg/mL.
T1 construct: made in house
Assay type: biochemical
Method in brief: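 Hydrolysis of the FRET substrate FS-3 (2 μM final) unquenches fluorescein, read at excitation 485 nm and emission 538 nm after 2 h at room temperature, protected from light. Purified human ATX (1.0 μg/mL) and compound were first incubated for 30 min in pH 7.4 Tris/salt buffer containing 1 mg/mL fatty acid-free BSA.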

O=C(N[C@H]1CC[C@@H](C(=O)O)CC1)c1cc2n(n1)CCCN(C(=O)OCc1cc(Cl)cc(Cl)c1)C2 [Example 85, (cis)-4-(5-(((3,5-Dichlorobenzyl)oxy)carbonyl)-5,6,7,8-tetrahydro-4H-pyrazolo[1,5-a][1,4]diazepine-2-carboxamido)cyclohexanecarboxylic acid] and CC1CCN(C(=O)c2cc3n(n2)CCCN(C(=O)OCc2cc(Cl)cc(Cl)c2)C3)CC1 [Example 21, 3,5-Dichlorobenzyl 2-(4-methylpiperidine-1-carbonyl)-7,8-dihydro-4H-pyrazolo[1,5-a][1,4]diazepine-5(6H)-carboxylate] cannot be ordered by IC50: at most 0.1 µM for the first, at most 0.1 µM for the second.

O=C(O)C1CC2CCCC(C1)N2C(=O)c1cc2n(n1)CCCN(C(=O)OCc1ccc(Cl)cc1)C2 (stereo not drawn) [Example 59, 9-(5-((4-Chlorobenzyloxy)carbonyl)-5,6,7,8-tetrahydro-4H-pyrazolo[1,5-a][1,4]diazepine-2-carbonyl)-9-aza-bicyclo[3.3.1]nonane-3-carboxylic acid] and O=C(O)C1CC2CCCC(C1)N2C(=O)c1cc2n(n1)CCCN(C(=O)OCc1cc(F)cc(Cl)c1)C2 (stereo not drawn) [Example 61, 9-(5-((3-Chloro-5-fluorobenzyloxy)carbonyl)-5,6,7,8-tetrahydro-4H-pyrazolo[1,5-a][1,4]diazepine-2-carbonyl)-9-aza-bicyclo[3.3.1]nonane-3-carboxylic acid] cannot be ordered by IC50: at most 0.1 µM for the first, at most 0.1 µM for the second.

CC(C)(C(=O)O)c1cc2n(n1)CCCN(C(=O)OCc1cc(C(F)(F)F)cc(C(F)(F)F)c1)C2 [Example 388] and COCc1cc2n(n1)CCCN(C(=O)OCc1cc(C(F)(F)F)cc(C(F)(F)F)c1)C2 [Example 285, 3,5-bis(trifluoromethyl)benzyl 2-(methoxymethyl)-7,8-dihydro-4H-pyrazolo[1,5-a][1,4]diazepine-5(6H)-carboxylate] cannot be ordered by IC50: at most 0.1 µM for the first, at most 0.1 µM for the second.

CN1CCCN(c2cc3n(n2)CCCN(C(=O)OCc2cc(C(F)(F)F)cc(C(F)(F)F)c2)C3)CC1 [Example 355] and CCC1CN(c2cc3n(n2)CCCN(C(=O)OCc2cc(C(F)(F)F)cc(C(F)(F)F)c2)C3)CCN1 (stereo not drawn) [Example 341] cannot be ordered by IC50: at most 0.1 µM for the first, at most 0.1 µM for the second.

O=C(OCc1cc(C(F)(F)F)cc(C(F)(F)F)c1)N1CCn2nc(C(=O)N3CC4CCC(C3)N4)cc2C1 [Example 437] and O=C(OCc1cc(C(F)(F)F)cc(C(F)(F)F)c1)N1CCCn2nc(C(=O)N3CC4CCC(C3)N4)cc2C1 [Example 221] cannot be ordered by IC50: at most 0.1 µM for the first, at most 0.1 µM for the second.

COC(=O)C1CCN(C(=O)c2cc3n(n2)CCN(C(=O)OCc2cc(C(F)(F)F)cc(C(F)(F)F)c2)C3)CC1 [Example 494] and O=C(OCc1cc(C(F)(F)F)cc(C(F)(F)F)c1)N1CCn2nc(C(=O)N3CCC(O)CC3)cc2C1 [Example 490] cannot be ordered by IC50: at most 0.1 µM for the first, at most 0.1 µM for the second.

CC1COCC(C)N1CC(=O)c1cc2n(n1)CCCN(C(=O)OCc1cc(Cl)cc(C(F)(F)F)c1)C2 (stereo not drawn) [Example 261] and C[C@H]1CCCN1CC(=O)c1cc2n(n1)CCCN(C(=O)OCc1cc(Cl)cc(C(F)(F)F)c1)C2 [Example 262] cannot be ordered by IC50: at most 0.1 µM for the first, at most 0.1 µM for the second.

O=C(OCc1cc(Cl)cc(C(F)(F)F)c1)N1CCCn2nc(C3CN4CCCC[C@H]4CO3)cc2C1 (mixture of isomers) [Example 253, 3-chloro-5-(trifluoromethyl)benzyl 2-((9aS)-octahydropyrido[2,1-c][1,4]oxazin-3-yl)-7,8-dihydro-4H-pyrazolo[1,5-a][1,4]diazepine-5(6H)-carboxylate] and O=C(OCc1cc(C(F)(F)F)cc(C(F)(F)F)c1)N1CCn2nc(C3CN4CCC[C@H]4CO3)cc2C1 (stereo partly drawn) [Example 255, 3,5-bis(trifluoromethyl)benzyl 2-((8aS)-hexahydro-1H-pyrrolo[2,1-c][1,4]oxazin-3-yl)-6,7-dihydropyrazolo[1,5-a]pyrazine-5(4H)-carboxylate] cannot be ordered by IC50: at most 0.1 µM for the first, at most 0.1 µM for the second.

CC(NC1COC1)c1cc2n(n1)CCCN(C(=O)OCc1cc(C(F)(F)F)cc(C(F)(F)F)c1)C2 (stereo not drawn) [Example 509] and CC(c1cc2n(n1)CCCN(C(=O)OCc1cc(C(F)(F)F)cc(C(F)(F)F)c1)C2)N1CCC(C(=O)O)CC1 (stereo not drawn) [Example 149, 1-(1-(5-(((3,5-Bis(trifluoromethyl)benzyl)oxy)carbonyl)-5,6,7,8-tetrahydro-4H-pyrazolo[1,5-a][1,4]diazepin-2-yl)ethyl)piperidine-4-carboxylic acid] cannot be ordered by IC50: at most 0.25 µM for the first, at most 0.5 µM for the second.

CC1CNCC(C)N1C(=O)c1cc2n(n1)CCN(C(=O)OCc1cc(Cl)cc(C(F)(F)F)c1)C2 (stereo not drawn) [Example 162, 3-chloro-5-(trifluoromethyl)benzyl 2-(2,6-dimethylpiperazine-1-carbonyl)-6,7-dihydropyrazolo[1,5-a]pyrazine-5(4H)-carboxylate] and CC1CNCC(C)N1C(=O)c1cc2n(n1)CCN(C(=O)OCc1cc(C(F)(F)F)cc(C(F)(F)F)c1)C2 (stereo not drawn) [Example 430] cannot be ordered by IC50: at most 0.1 µM for the first, at most 0.1 µM for the second.

O=C(O)c1cc2n(n1)CCN(C(=O)OCc1cc(Cl)cc(C(F)(F)F)c1)C2 [Example 410, 5-(((3-chloro-5-(trifluoromethyl)benzyl)oxy)carbonyl)-4,5,6,7-tetrahydropyrazolo[1,5-a]pyrazine-2-carboxylic acid] and O=C(O)c1cc2n(n1)CCCN(C(=O)OCc1cc(F)cc(C(F)(F)F)c1)C2 [Example 64, 5-(((3-Fluoro-5-(trifluoromethyl)benzyl)oxy)carbonyl)-5,6,7,8-tetrahydro-4H-pyrazolo[1,5-a][1,4]diazepine-2-carboxylic acid] cannot be ordered by IC50: at most 0.25 µM for the first, at most 0.1 µM for the second.

CC(C)(C)OC(=O)N1C2CCC1CN(C(=O)c1cc3n(n1)CCN(C(=O)OCc1cc(Cl)cc(C(F)(F)F)c1)C3)C2 [Example 478] and O=C(OCc1cc(Cl)cc(C(F)(F)F)c1)N1CCCn2nc(C(=O)N3CC4CCNC4C3)cc2C1 (stereo not drawn) [Example 167] cannot be ordered by IC50: at most 0.1 µM for the first, at most 0.1 µM for the second.

O=C(O)c1cc2n(n1)CCCN(C(=O)COc1cc(C(F)(F)F)cc(C(F)(F)F)c1)C2 [Example 117, 5-(2-(3,5-Bis(trifluoromethyl)phenoxy)acetyl)-5,6,7,8-tetrahydro-4H-pyrazolo[1,5-a][1,4]diazepine-2-carboxylic acid] and Cc1cc(COC(=O)N2CCCn3nc(C(=O)O)cc3C2)cc(C(F)(F)F)c1 [Example 109, 5-(((3-Methyl-5-(trifluoromethyl)benzyl)oxy)carbonyl)-5,6,7,8-tetrahydro-4H-pyrazolo[1,5-a][1,4]diazepine-2-carboxylic acid] cannot be ordered by IC50: at most 0.5 µM for the first, at most 0.1 µM for the second.

O=C(OCc1cc(Cl)cc(Cl)c1)N1CCCn2nc(-c3nnn[nH]3)cc2C1 [Example 123, 3,5-Dichlorobenzyl 2-(1H-tetrazol-5-yl)-7,8-dihydro-4H-pyrazolo[1,5-a][1,4]diazepine-5(6H)-carboxylate] and O=C(OCc1cc(Cl)cc(Cl)c1)N1CCCn2nc(C(=O)N3CCC(C(F)(F)F)CC3)cc2C1 [Example 22, 3,5-Dichlorobenzyl 2-(4-(trifluoromethyl)piperidine-1-carbonyl)-7,8-dihydro-4H-pyrazolo[1,5-a][1,4]diazepine-5(6H)-carboxylate] cannot be ordered by IC50: at most 0.25 µM for the first, at most 0.1 µM for the second.

CC1CC(Nc2cc3n(n2)CCCN(C(=O)OCc2cc(C(F)(F)F)cc(C(F)(F)F)c2)C3)CCN1 (stereo not drawn) [Example 315] and O=C(OCc1cc(C(F)(F)F)cc(C(F)(F)F)c1)N1CCCn2nc(C3CCNCC3)cc2C1 [Example 375, 3,5-bis(trifluoromethyl)benzyl 2-(piperidin-4-yl)-7,8-dihydro-4H-pyrazolo[1,5-a][1,4]diazepine-5(6H)-carboxylate] cannot be ordered by IC50: at most 0.1 µM for the first, at most 0.1 µM for the second.

CN1CCN(C(=O)c2cc3n(n2)CCCN(C(=O)OCc2cc(Cl)cc(C(F)(F)F)c2)C3)C(C(=O)O)C1 (stereo not drawn) [Example 184] and CC1CNCCN1C(=O)c1cc2n(n1)CCCN(C(=O)OCc1cc(Cl)cc(C(F)(F)F)c1)C2 (stereo not drawn) [Example 213] cannot be ordered by IC50: at most 0.1 µM for the first, at most 0.1 µM for the second.

CNC1CN(C(=O)c2cc3n(n2)CCN(C(=O)OCc2cc(C(F)(F)F)cc(C(F)(F)F)c2)C3)C1 [Example 438] and O=C(CN1CCOCC1)c1cc2n(n1)CCN(C(=O)OCc1cc(C(F)(F)F)cc(C(F)(F)F)c1)C2 [Example 259] cannot be ordered by IC50: at most 0.1 µM for the first, at most 0.1 µM for the second.

CC(C)(C)OC(=O)N1CCC=C(c2cc3n(n2)CCN(C(=O)OCc2cc(C(F)(F)F)cc(C(F)(F)F)c2)C3)C1 [Example 498] and CC(c1cc2n(n1)CCN(C(=O)OCc1cc(C(F)(F)F)cc(C(F)(F)F)c1)C2)N1CCN(C(=O)OC(C)(C)C)CC1 (stereo not drawn) [Example 448] cannot be ordered by IC50: at most 0.1 µM for the first, at most 0.1 µM for the second.

CN1C2CCC1CN(C(=O)c1cc3n(c1)CCCN(C(=O)OCc1cc(Cl)cc(C(F)(F)F)c1)C3)C2 [Example 278, 3-chloro-5-(trifluoromethyl)benzyl 8-(8-methyl-3,8-diazabicyclo[3.2.1]octane-3-carbonyl)-4,5-dihydro-1H-pyrrolo[1,2-a][1,4]diazepine-2(3H)-carboxylate] and N#CC1CN(C(=O)c2cc3n(n2)CCCN(C(=O)OCc2cc(Cl)cc(C(F)(F)F)c2)C3)CCN1 (stereo not drawn) [Example 171] cannot be ordered by IC50: at most 0.1 µM for the first, at most 0.1 µM for the second.

Cc1nc(-c2cc3n(n2)CCCN(C(=O)OCc2cc(C(F)(F)F)cc(C(F)(F)F)c2)C3)no1 [Example 392, 3,5-bis(Trifluoromethyl)benzyl 2-(5-methyl-1,2,4-oxadiazol-3-yl)-7,8-dihydro-4H-pyrazolo[1,5-a][1,4]diazepine-5(6H)-carboxylate] and CC1C=C(c2cc3n(n2)CCCN(C(=O)OCc2cc(C(F)(F)F)cc(C(F)(F)F)c2)C3)CC(C)N1 (stereo not drawn) [Example 378] cannot be ordered by IC50: at most 0.1 µM for the first, at most 0.1 µM for the second.

O=C(O)C1CC2CCCC(C1)N2C(=O)c1cc2n(n1)CCCN(C(=O)CCc1cc(Cl)cc(Cl)c1)C2 (stereo not drawn) [Example 90, 9-(5-(3-(3,5-Dichlorophenyl)propanoyl)-5,6,7,8-tetrahydro-4H-pyrazolo[1,5-a][1,4]diazepine-2-carbonyl)-9-azabicyclo[3.3.1]nonane-3-carboxylic acid] and O=C(O)c1nn2c(c1F)CN(C(=O)OCc1cc(C(F)(F)F)cc(C(F)(F)F)c1)CCC2 [Example 507, 5-(((3,5-bis(Trifluoromethyl)benzyl)oxy)carbonyl)-3-fluoro-5,6,7,8-tetrahydro-4H-pyrazolo[1,5-a][1,4]diazepine-2-carboxylic acid] cannot be ordered by IC50: at most 0.1 µM for the first, at most 0.1 µM for the second.
